Residues, ends and D or L forms follow the SMILES beside them.
Assay: in vivo
Parameters: species or system NMRI mice
Settings: male, NMRI, mouse, iv
Procedure: Example 5: Pharmacokinetics Intravenous (iv) PK in Mouse Pharmacokinetic parameters of the test compounds were determined after intravenous administration to Naval Medical Research Institute (NMRI) mice. Male NMRI mice were obtained either from Charles River (Germany) or from Janvier (France) weighing approximately 30 g to 40 g. Mice were housed in standard cages with light cycle of 12-hour dark and 12-hour light. Standardized food and water were offered ad libitum to the animals during the whole experimental period. The respective peptide was dissolved in 50 mM phosphate buffer (pH 7.4) containing 3.5% mannitol. Intravenous doses of 30 nmol/kg were given via a tail vein. Serial blood samples were collected from the vena saphena into tubes containing EDTA as anticoagulant at different time points up to 48 hours post dosing. After centrifugation for approximately 5 minutes, plasma samples were transferred to 96-well Polymerase Chain Reaction (PCR) plates, immediately frozen and kept at approximately −20° C. until analyzed for plasma concentration by liquid chromatography mass spectrometry (LC-MS/MS). Individual plasma concentration-time profiles were analyzed by a non-compartmental approach, and the resulting pharmacokinetic parameters were determined.

| SMILES | MRT | MRT (30 nmol/kg) |
| --- | --- | --- |
| CCCC[C@H](NC(=O)[C@H](CC(C)C)N(C)C(=O)[C@H](Cc1ccccc1)NC(=O)[C@H](Cc1ccc(O)cc1)NC(=O)CN1CCN(CCNC(=O)CN(C)C(=O)CN(C)C(=O)CN(C)C(=O)CN(C)C(=O)CN(C)C(=O)CN(C)C(=O)CN(C)C(=O)CN(C)C(=O)CN(C)C(=O)CN(C)C(=O)CN(C)C(=O)CN(C)C(=O)CN(C)C(=O)CN(C)C(=O)CN(C)C(=O)CC[C@H](NC(=O)CC[C@H](NC(=O)CC[C@H](NC(=O)CCCCCCCCCCCCCCCCCCC(=O)O)C(=O)O)C(=O)O)C(=O)O)CC1)C(=O)N[C@@H](CCCN)C(=O)N1CCC[C@H]1C(=O)N[C@@H](CCCNC(=N)N)C(=O)NCC(N)=O [Compound 1, C20DA-gGlu3-Sar15-AEPipAc-Tyr-Phe-NMeLeu-Nle-Orn-Pro-Arg-Gly-NH2] (HELM PEPTIDE1{[O=C(O)CCCCCCCCCCCCCCCCCCC(=O)[*:2]].[gGlu].[gGlu].[gGlu].[Sar].[Sar].[Sar].[Sar].[Sar].[Sar].[Sar].[Sar].[Sar].[Sar].[Sar].[Sar].[Sar].[Sar].[Sar].[O=C(CN1CCN(CCN[*:1])CC1)[*:2]].Y.F.[meL].[Nle].[Orn].P.R.G.[am]}$$$$V2.0) | 38.1 h | 38.1 h |
| CCCC[C@H](NC(=O)[C@H](CC(C)C)N(C)C(=O)[C@H](Cc1ccccc1)NC(=O)[C@H](Cc1ccc(O)cc1)NC(=O)CN1CCN(CCNC(=O)CN(C)C(=O)CN(C)C(=O)CN(C)C(=O)CN(C)C(=O)CN(C)C(=O)CN(C)C(=O)CN(C)C(=O)CN(C)C(=O)CN(C)C(=O)CN(C)C(=O)CN(C)C(=O)CN(C)C(=O)CN(C)C(=O)CN(C)C(=O)CN(C)C(=O)CC[C@H](NC(=O)CC[C@H](NC(=O)CC[C@H](NC(=O)CCCCCCCCCCCCCCCCC(=O)O)C(=O)O)C(=O)O)C(=O)O)CC1)C(=O)N[C@@H](CCCNC(=N)N)C(=O)N1CCC[C@H]1C(=O)N[C@@H](CCCNC(=N)N)C(=O)NCC(N)=O [Compound 7, C18DA-gGlu3-Sar15-AEPipAc-Tyr-Phe-NMeLeu-Nle-Arg-Pro-Arg-Gly-NH2] (HELM PEPTIDE1{[O=C(O)CCCCCCCCCCCCCCCCC(=O)[*:2]].[gGlu].[gGlu].[gGlu].[Sar].[Sar].[Sar].[Sar].[Sar].[Sar].[Sar].[Sar].[Sar].[Sar].[Sar].[Sar].[Sar].[Sar].[Sar].[O=C(CN1CCN(CCN[*:1])CC1)[*:2]].Y.F.[meL].[Nle].R.P.R.G.[am]}$$$$V2.0) | 17.4 h | 17.4 h |
| CCCC[C@H](NC(=O)[C@H](CC(C)C)N(C)C(=O)[C@H](Cc1ccccc1)NC(=O)[C@H](Cc1ccc(O)cc1)NC(=O)CN1CCN(CCNC(=O)CN(C)C(=O)CN(C)C(=O)CN(C)C(=O)CN(C)C(=O)CN(C)C(=O)CN(C)C(=O)CN(C)C(=O)CN(C)C(=O)CN(C)C(=O)CN(C)C(=O)CN(C)C(=O)CN(C)C(=O)CN(C)C(=O)CN(C)C(=O)CN(C)C(=O)CC[C@H](NC(=O)CC[C@H](NC(=O)CC[C@H](NC(=O)CCCCCCCCCCCCCCCCC(=O)O)C(=O)O)C(=O)O)C(=O)O)CC1)C(=O)N[C@@H](CCN)C(=O)N1CCC[C@H]1C(=O)N[C@@H](CCCNC(=N)N)C(=O)NCC(N)=O [Compound 26, C18DA-gGlu3-Sar15-AEPipAc-Tyr-Phe-NMeLeu-Nle-Dbu-Pro-Arg-Gly-NH2] (HELM PEPTIDE1{[O=C(O)CCCCCCCCCCCCCCCCC(=O)[*:2]].[gGlu].[gGlu].[gGlu].[Sar].[Sar].[Sar].[Sar].[Sar].[Sar].[Sar].[Sar].[Sar].[Sar].[Sar].[Sar].[Sar].[Sar].[Sar].[O=C(CN1CCN(CCN[*:1])CC1)[*:2]].Y.F.[meL].[Nle].[Dab].P.R.G.[am]}$$$$V2.0) |  | 12.4 h |
| CCCC[C@H](NC(=O)[C@H](CC(C)C)N(C)C(=O)[C@H](Cc1ccccc1)NC(=O)[C@H](Cc1ccc(O)cc1)NC(=O)CN1CCN(CCNC(=O)CN(C)C(=O)CN(C)C(=O)CN(C)C(=O)CN(C)C(=O)CN(C)C(=O)CN(C)C(=O)CN(C)C(=O)CN(C)C(=O)CN(C)C(=O)CN(C)C(=O)CN(C)C(=O)CN(C)C(=O)CN(C)C(=O)CN(C)C(=O)CN(C)C(=O)CC[C@H](NC(=O)CC[C@H](NC(=O)CC[C@H](NC(=O)CCCCCCCCCCCCCCCCCCC(=O)O)C(=O)O)C(=O)O)C(=O)O)CC1)C(=O)N[C@@H](CCN)C(=O)N1CCC[C@H]1C(=O)N[C@@H](CCCNC(=N)N)C(=O)NCC(N)=O [Compound 42, C20DA-gGlu3-Sar15-AEPipAc-Tyr-Phe-NMeLeu-Nle-Dbu-Pro-Arg-Gly-NH2] (HELM PEPTIDE1{[O=C(O)CCCCCCCCCCCCCCCCCCC(=O)[*:2]].[gGlu].[gGlu].[gGlu].[Sar].[Sar].[Sar].[Sar].[Sar].[Sar].[Sar].[Sar].[Sar].[Sar].[Sar].[Sar].[Sar].[Sar].[Sar].[O=C(CN1CCN(CCN[*:1])CC1)[*:2]].Y.F.[meL].[Nle].[Dab].P.R.G.[am]}$$$$V2.0) |  | 31.2 h |
| CCCC[C@H](NC(=O)[C@H](CC(C)C)N(C)C(=O)[C@H](Cc1ccccc1)NC(=O)[C@H](Cc1ccc(O)cc1)NC(=O)CN1CCN(CCNC(=O)CN(C)C(=O)CN(C)C(=O)CN(C)C(=O)CN(C)C(=O)CN(C)C(=O)CN(C)C(=O)CN(C)C(=O)CN(C)C(=O)CN(C)C(=O)CN(C)C(=O)CN(C)C(=O)CN(C)C(=O)CN(C)C(=O)CN(C)C(=O)CN(C)C(=O)CC[C@H](NC(=O)CC[C@H](NC(=O)CC[C@H](NC(=O)CCCCCCCCCCCCCCCCCCC(=O)O)C(=O)O)C(=O)O)C(=O)O)CC1)C(=O)N[C@@H](CCN)C(=O)N(C)[C@@H](C)C(=O)N[C@@H](CCCNC(=N)N)C(=O)NCC(N)=O [Compound 43, C20DA-gGlu3-Sar15-AEPipAc-Tyr-Phe-NMeLeu-Nle-Dbu-NMeAla-Arg-Gly-NH2] (HELM PEPTIDE1{[O=C(O)CCCCCCCCCCCCCCCCCCC(=O)[*:2]].[gGlu].[gGlu].[gGlu].[Sar].[Sar].[Sar].[Sar].[Sar].[Sar].[Sar].[Sar].[Sar].[Sar].[Sar].[Sar].[Sar].[Sar].[Sar].[O=C(CN1CCN(CCN[*:1])CC1)[*:2]].Y.F.[meL].[Nle].[Dab].[meA].R.G.[am]}$$$$V2.0) |  | 37.7 h |

From patent US20240279278A1, “NMU RECEPTOR 2 AGONISTS” (Boehringer Ingelheim International GmbH, priority 2023, published 2024)
